Results: patent publication US8431595B2, “Furanopyridine cannabinoid compounds and related methods of use” (The University of Tennessee Research Foundation, priority 2009, dated 2013)

Test system: glioblastoma brain cancer cell line LN-229
Assay: Cytotoxicity assay (CCK8 viability)
Assay type: cell-based
Conditions: Homo sapiens, LN-229 cells, 48 hrs
Method: Cytoxocity assay: Cells are seeded on a 96 well polystyrene plate in full serum media at a density of 75,000 cells per milliliter, 100 μL per well. Plates are incubated at 37° C. and 5% CO2 for 24 hours to allow cell attachment. Drug solutions are prepared in DMSO at 100× concentration and mixed 1:100 in 1% FBS media to yield the desired concentration. Drug-media mixtures are vortexed immediately prior to administration to cells. […] of Cell Counting Kit 8 (CCK8, Dojindo# CK04-11) is added to each well to colormetrically assess viability. After 2-4 hours of incubation with the CCK8 dye, absorbance is read at 450 nm by a BioTek Synergy 2 plate reader.
The cytotoxicity of selected compounds against the glioblastoma brain cancer cell line LN-229 is depicted in Table 1.

CCCCCCC(C)(C)c1cc(O)c2c(-c3ccccc3)coc2n1 [Compound 4c, 6-(2-Methyloctan-2-yl)-3-phenylfuro[2,3-b]pyridin-4-ol]
EC50: 33.6 µM
